# In patent US20220241311A1, “METHODS AND MATERIALS FOR TREATING GLYCOSYLATION DISORDERS” (priority 2018, published 2022):
# Columns and labels:
# [1] = test system: ICAM-1; assay: ICAM-1 Western blotting with galactose supplementation, healthy cells
# [2] = test system: PGM1 deficient cell lines; assay: Lipid-linked and protein-linked oligosaccharide analysis
# [3] = test system: ICAM-1; assay: ICAM-1 Western blotting with galactose supplementation, patient skin fibroblasts; conditions: patient 5; all doses
# [4] = test system: PGM1-CDG patients; assay: Oral D-gal supplementation: laboratory studies in blood (liver transaminases, coagulation, glycoproteins, CK, glucose); type: in vivo, human
# Excerpt: (§1) The study design was an open-label prospective study. Patients with biochemically and genetically confirmed PGM1 deficiency were recruited into the study. Individuals with an existing diagnosis of aldolase B deficiency, galactosemia, hemolytic uremic syndrome, severe anemia, galactose intolerance, or intellectual disability were excluded from the study. Nine patients were enrolled in the study, five females and four males. Patient age ranged from 19 months to 21 years old at the time of enrollment (mean age 9.75 years). Informed written consent was obtained before the start of study. A primary end-point was to assess the safety and tolerability of oral D-gal supplementation and to identify physiological biomarkers that are responsive to D-gal supplementation in a heterogeneous genetic background. The effect of D-gal in PGM1-CDG patients was also monitored via glycomics. Secondary endpoints were the restoration of the plasma glycan subfractions, monitored via glycomics (Table 3), and normalization of antithrombin III activity and serum alanine transaminase (ALT) levels.
# (§2) The D-gal intake was increased over the study period in increments as follows: weeks 0-6 (T0-T1), 0.5 g/kg per day; weeks 6-12 (T1-T2), 1.0 g/kg per day; weeks 12-18 (T2-T3), 1.5 g/kg per day (FIG. 2). The intake was increased gradually to reach the recommended maximum daily dose with minimal gastrointestinal irritation (diarrhea, stomachache, nausea) and metabolic side effects (presence of urinary galactitol).
# (§3) Dietary assessment, clinical evaluation (general physical examination and anthropometric measurements), and laboratory and biochemical studies were completed every 6 weeks (T0, T1, T2 and T3).
# (§4) Liver transaminases (aspartate transaminase (AST) and alanine transaminase (ALT)), creatine kinase (CK), commonly assayed glycoproteins (thyroid stimulating hormone (TSH), thyroxine-binding globulin (TBG), and insulin-like growth factor binding protein 3 (IGF3BP)), and coagulation parameters (Factor IX, Factor XI, activated […] (aPTT), and anti-thrombin III (ATIII)), were measured in blood. Patent 1 had additional Factor XI, and XIII measurements. Serum galactose-1-phosphate and urine galactitol were measured to monitor safety and tolerability of galactose supplementation. Biochemical studies to evaluate changes in glycosylation included isoelectric focusing (IEF) of serum transferrin and glycomic analysis in blood by mass spectrometry.
# Patient 1 remained on D-gal 1 g/kg/day after the study period as D-gal is the only currently available compassionate treatment for PGM1-CDG. The parameters monitored during the study period, including additional coagulation factor measurements, have been followed as part of routine care (Table 4).
# Quantitative data are presented as the mean±standard error of the mean.
# [5] = Blood concentration of D-gal after oral dose; type: in vivo, human; conditions: PGM1-CDG patients; 1-1.5 g/kg/day oral
# Method: An oral dose of 0.3 g/kg D-gal supplement leads to a blood concentration of D-gal at 0.75 mM, 1.0 g/kg D-gal dose corresponds to 2.25 mM peak concentration of D-gal in blood, while an oral dose of 1.5 g/kg galactose supplement leads to a blood peak concentration of 3.5 mM (Tegtmeyer et al. 2014). The blood concentration of free D-galactose in un-supplemented individuals was below 0.01 mM.
# [6] = cited from earlier work
# [7] = test system: PGM1-CDG patients; assay: Open-label prospective study of oral D-gal supplementation: safety and tolerability; type: in vivo, human
# Excerpt: as §1
# Participants in this pilot study received oral D-gal supplementation, added to the regular diet, over 18 weeks. D-gal (pure and soluble D-galactose powder: D-GALACTOSE or Galaxtra™) was provided as medical food/nutritional supplement. 50 g D-gal equals 5 tablespoons of “powdered sugar”. D-gal was added to a meal once a day. It can be added to any food or drink and has a mildly sweet aftertaste.
# as §2
# Tolerability and side effects of oral D-gal supplementation, based on studies in blood (glucose, lactic acid, ammonia, galactose-1-phosphate) and urine (galactitol excretion), were monitored at every time point.
# as §3, §4
# Electrocardiography/echocardiography and hepatic ultrasonography were conducted at T0 and T3.
# [8] = patient 1, 1 g/kg/day for additional 12 months
structure (smiles),measurement,setting,value
"O=C[C@H](O)[C@@H](O)[C@@H](O)[C@H](O)CO [D-gal, D-galactose]",ICAM-1 expression,[1],no effect
same,PLO profile,[2]; all four patient cell lines,In none of the patients galactose supplementation had an effect
same,Shortened LLO (Man9GlcNAc2-PP-dolichol),[2]; patient 8,No improvement
same,Shortened LLO (Man9GlcNAc2-PP-dolichol),"[2]; patients 1, 2, cell-line 2013Y, 10 mM D-gal, LLO profile similar to control",reduction of shortened LLO
same,ICAM-1 expression,[3],No improvement
same,ALT levels,"[4]; T0 to T2, p=0.05",significantly decreased
same,"ATIII, T0 vs T3","[4]; all patient data, P=0.020",significant difference
same,AST,"[4]; all patients except patient 2, 18 weeks","did not normalize at 18 weeks, it fell below baseline"
same,AST,"[4]; all patients, 6 weeks",moderately declined
same,AST,"[4]; all patients, 12 weeks vs baseline",declined by 23% to more than 10-fold
same,Creatine kinase and glucose levels,[4]; during the study,fluctuated and remained abnormal
same,Frequency of hypoglycemic episodes,[4]; during the study,decreased significantly in four patients
same,Laboratory parameters at 1.5 g/kg/day compared to 1 g/kg/day,[4]; last 6 weeks of the trial,did not lead to significant improvement
same,"ALT, aPTT, ATIII, TSH, TBG, long-term",[4]; [8],remained stable
same,"Factor XI and Factor XIII, long-term",[4]; [8],returned to before-treatment levels
same,ATIII,"[4]; patient 1, 18 weeks",remained within normal range
same,Factor XI,"[4]; patient 1, after 12-18 weeks",normalized
same,Factor XIII,"[4]; patient 1, after 12-18 weeks",normalized
same,"Creatine kinase decrease, long-term","[4]; patient 1, over the course of one year",~80%
same,TSH,[4]; patient 2 (abnormal baseline),normalized at 18 weeks
same,ATIII vs baseline,"[4]; patient 2, 18 weeks",twofold higher than baseline
same,AST,"[4]; patient 2, 18 weeks, after discontinuing galactose for 2 weeks","spiked upwards, almost reaching baseline"
same,"ALT, excess over baseline","[4]; patient 2, 18 weeks, intercurrent illness",18%
same,ATIII drop,"[4]; patient 2, following illness and cessation of galactose intake",30%
same,IGFBP-3,[4]; patient 3,normalized at 18 weeks
same,TSH,[4]; patient 5 (abnormal baseline),normalized at 6 weeks and remained stable at 12 and 18 weeks
same,ALT decrease,"[4]; patient 5, 6 weeks",43%
same,ATIII,"[4]; patient 5, 6 weeks",transiently normalized
same,ALT above the upper limit of normal,"[4]; patient 5, 12 and 18 weeks",3%
same,ATIII below the lower limit of normal,"[4]; patient 5, 12 and 18 weeks",8%
same,IGFBP-3,"[4]; patient 6, 12 weeks",slight improvement
same,IGFBP-3 below the lower limit of normal,"[4]; patient 6, 12 weeks",about 50%
same,TBG below the lower limit of normal,"[4]; patient 6, 12 weeks",8%
same,TBG improvement,"[4]; patient 6, 12 weeks",30%
same,TBG higher than the upper limit of normal,"[4]; patient 9, 18 weeks",80%
same,TBG decline,"[4]; patient 9, 18 weeks, baseline twofold the upper limit of normal",12%
same,ALT,"[4]; patients 1, 2, 4, 7 (abnormal baseline)",normalized at 6 or 12 weeks
same,Factor IX levels,"[4]; patients 1, 2, 5, 6, 9, 18 weeks",remained normal
same,IGFBP-3,[4]; patients 1 and 2,normalized at 12 weeks and remained stable at 18 weeks
same,TBG,[4]; patients 1 and 2,normalized at 6 weeks and remained stable at 12 and 18 weeks
same,ATIII,"[4]; patients 1 and 2, 12 weeks",normalized
same,aPTT,[4]; patients 1 and 7 (abnormal baseline),"normalized at 6 and 12 weeks, respectively"
same,aPTT,"[4]; patients 2, 3, 5, 6 (normal baseline)",remained stable
same,Peak concentration of galactose in blood,[5],0.75 to 2 mM
same,Peak concentration of D-gal in blood,[6]; 1.0 g/kg dose,2.25 mM
same,Blood concentration of D-gal,[6]; oral dose of 0.3 g/kg,750 µM
same,Blood peak concentration,[6]; oral dose of 1.5 g/kg,3.5 mM
same,Serious adverse events,[7]; 18 weeks oral D-gal,No serious adverse events were reported
same,Galactitol excretion in urine,[7]; during the trial,no patients experiencing increased galactitol excretion in urine
same,Adverse events,"[7]; incremental increase in D-gal intake, monitored weekly","Aside from gastroenteritis in patient 2, no clinical or metabolic adverse events"
same,Galactose-1-phosphate levels,"[7]; patients 1, 2, 3, 5, 7, 9, T2 and T3",no abnormalities were found
same,Structural cardiac or liver changes,[7]; study endpoint,No structural cardiac or liver changes were noted
same,Clinical rhabdomyolysis,[7]; while on galactose supplementation,none of the patients experienced clinical rhabdomyolysis
